Experimental findings from patent US8883801B2, “Substituted pyrazolo[1,5-a]pyrimidines as mTOR inhibitors” (Merck Sharp & Dohme Corp., priority 2010, dated 2014) are described below.

Test [1] concerns the target human mTOR enzyme (Homo sapiens, UniProt P42345). The test is described as follows: HTRF mTOR enzyme (kinase) assay. It counts as biochemical. The conditions noted are these: 5 μM ATP, 0.2 μM GST-S6K, read-out: hMTOR IC50. (In TR-FRET formats the signal depends on donor and acceptor labels being close together.)
The subject of test [2] is mTORC2 activity: phosphorylated AKT Ser473 (pAKT S473) in PC3 cells. As to the kind of experiment: mTOR target engagement assay, immunofluorescent cell-based, mTORC2 readout. Conditions: Homo sapiens, PC-3, 1.5 h, 90 min treatment. As to the method:
The target engagement of mTOR kinase inhibitors was evaluated using an immunofluorescent cell-based assay. In this assay, inhibition of mTORC1 activity was measured by the reduction in the level of phosphorylated 4E-BP1Thr37/46 (p4E-BP1 Thr37/46), and inhibition of mTORC2 activity was measured by the reduction of phosphorylated AKTSer473 (pAKT S473).
PC3 cells (prostate tumor cell-line that contains a mutation in the tumor suppressor PTEN, that promotes the phosphorylation and activation of AKT and 4E-BP1) were used in the immunofluorescence assay. PC3 cells were seeded on 384 well plates (black clear bottom, Matrix #4332) overnight. PC3 cells were then treated with 40 μl of the serially diluted test compounds (in 5% fetal bovine serum, F12 medium containing 0.25% DMSO) for ninety minutes at 37° C. The test compound solution was removed, and the plates were washed gently two times with 25 μl phosphate buffered saline (PBS). The cells were fixed by adding 25 μl of Prefer reagent (from Anatech LTD, Cat#414, a glyoxal fixative for fixing proteins within a cell) for sixty minutes followed by three washes with PBS. 5% Goat serum in PBS/0.3% Triton was used to block non-specific binding (60 minutes).
The primary antibodies targeting pAKT S473 and p4E-BP1 Thr37/46 were diluted into PBS/0.3% Triton and incubated with the cells overnight at 4° C. The antibodies targeting pAKTS473 (Cat#4085, Cell signaling) and p4E-BP1 Thr37/46 (Cat#2855, Cell signaling) were used at a 1:100 dilution. Plates were washed three times with PBS/0.1% Tween 20 before adding the secondary antibody at a 1:200 dilution. (goat anti-rabbit containing a fluorescent label, Alexa Fluor 488, Cat#A11008, Invitrogen) in PBS/0.3% Triton for 60 minutes.
Finally, the plates were washed three times with PBS/0.1% Tween 20 and the fluorescent intensity was read using an Analyst HT from Molecular Devices. The fluorescent intensity values from the serially diluted compound treatment group were analyzed using the Xlfit 4 program ([…]) (Formula 205: Y=Bottom+(Top-Bottom)/(1+(IC50/X)^Hillslope) to generate the IC50 value. Where Top is the maximum signal without Compound (+DMSO only) and Bottom represents maximum inhibition. Y is the fluorescence at some compound concentration. The control used to determine the fluorescent intensities for 100% pAKT S473 or 100% phosphorylated p4E-BP1 Thr37/46 were measured from untreated wells that contained only DMSO, instead of test compound.

As usually defined, the IC50 is the point on the concentration scale where inhibition reaches its midpoint.

Where two headings read alike, the source gives them in different places.

Chain of human mTOR enzyme (P42345 1360-2549 limits assumed): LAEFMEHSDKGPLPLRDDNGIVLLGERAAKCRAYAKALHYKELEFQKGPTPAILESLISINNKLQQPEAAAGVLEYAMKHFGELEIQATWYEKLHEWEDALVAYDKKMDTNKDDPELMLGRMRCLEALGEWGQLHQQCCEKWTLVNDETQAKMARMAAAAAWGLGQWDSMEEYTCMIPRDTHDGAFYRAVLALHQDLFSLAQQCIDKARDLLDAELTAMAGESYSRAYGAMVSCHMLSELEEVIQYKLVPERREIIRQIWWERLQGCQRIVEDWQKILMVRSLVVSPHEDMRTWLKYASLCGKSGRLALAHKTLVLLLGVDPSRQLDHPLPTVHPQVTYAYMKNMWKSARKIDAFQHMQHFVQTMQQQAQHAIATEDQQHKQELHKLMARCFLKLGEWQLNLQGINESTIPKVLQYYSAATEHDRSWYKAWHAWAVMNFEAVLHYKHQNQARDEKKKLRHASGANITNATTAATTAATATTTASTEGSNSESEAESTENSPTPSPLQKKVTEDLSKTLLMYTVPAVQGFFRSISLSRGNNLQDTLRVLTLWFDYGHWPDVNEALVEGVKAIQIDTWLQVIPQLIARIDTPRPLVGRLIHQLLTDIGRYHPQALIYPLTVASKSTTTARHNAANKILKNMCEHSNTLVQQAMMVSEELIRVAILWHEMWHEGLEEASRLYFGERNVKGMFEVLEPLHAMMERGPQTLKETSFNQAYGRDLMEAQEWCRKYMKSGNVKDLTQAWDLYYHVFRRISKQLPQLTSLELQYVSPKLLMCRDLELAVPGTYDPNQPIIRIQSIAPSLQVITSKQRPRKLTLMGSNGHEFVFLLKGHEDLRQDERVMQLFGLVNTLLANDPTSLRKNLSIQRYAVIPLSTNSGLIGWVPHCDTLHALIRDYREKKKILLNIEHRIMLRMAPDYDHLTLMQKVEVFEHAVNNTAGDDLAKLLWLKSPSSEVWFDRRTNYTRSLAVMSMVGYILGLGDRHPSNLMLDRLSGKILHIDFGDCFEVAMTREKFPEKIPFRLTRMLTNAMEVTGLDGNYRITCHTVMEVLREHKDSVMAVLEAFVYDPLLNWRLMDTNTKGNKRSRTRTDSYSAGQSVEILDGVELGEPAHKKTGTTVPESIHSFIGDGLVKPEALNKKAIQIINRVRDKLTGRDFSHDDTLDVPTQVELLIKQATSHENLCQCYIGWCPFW

For `C[C@]1(C(=O)O)CC[C@@H](c2nc3c(-c4ccc(-c5ccccc5)nc4)cnn3c(N)c2Br)CC1` [Compound 2, (1S,4S)-4-(7-amino-6-bromo-3-(6-phenylpyridin-3-yl)pyrazolo[1,5-a]pyrimidin-5-yl)-1-methylcyclohexanecarboxylic acid], the half-inhibitory concentration (IC50) in test [1] (rated class) was in the range of 1 to 100 nM; in test [2] (rated class), 2000 to 5000 nM.
For `CC(=O)c1c(C2CCC(O)(CO)CC2)nc2c(-c3cnc4ccc(F)cc4c3)cnn2c1N` (centres unmarked) [Compound 142, 1-(7-amino-3-(6-fluoroquinolin-3-yl)-5-(4-hydroxy-4-(hydroxymethyl)-cyclohexyl)-pyrazolo-[1,5-a]pyrimidin-6-yl)ethanone], in that order: 1 to 100 nM and 1 to 100 nM.
Regarding `Nc1c(Br)c([C@H]2CC[C@@](F)(C(=O)O)CC2)nc2c(-c3ccc(-c4ccccc4)nc3)cnn12` [Compound 4, (1R,4R)-4-(7-amino-6-bromo-3-(6-phenylpyridin-3-yl)pyrazolo[1,5-a]pyrimidin-5-yl)-1-fluorocyclohexane-carboxylic acid], the IC50 was in the range of 1 to 100 nM in test [1] (rated class) and 100 to 1000 nM in test [2] (rated class).
For `COCCOC[C@]1(C(=O)O)CC[C@H](c2nc3c(-c4ccc(-c5ccccc5)nc4)cnn3c(N)c2Br)CC1` [Compound 11, (1R,4R)-4-(7-amino-6-bromo-3-(6-phenylpyridin-3-yl)pyrazolo[1,5-a]pyrimidin-5-yl)-1-((2-methoxyethoxy)methyl)cyclohexane-carboxylic acid], the IC50 came to 4.61 nM in test [1] (numeric value) and 2030 nM in test [2] (numeric value).
As for `Nc1c(Br)c(C2CCC(N)(C(=O)O)CC2)nc2c(-c3ccc(-c4ccccc4)nc3)cnn12` (centres unmarked) [Compound 73, 1-amino-4-(7-amino-6-bromo-3-(6-phenylpyridin-3-yl)pyrazolo[1,5-a]pyrimidin-5-yl)cyclohexanecarboxylic acid], the IC50 in test [1] (rated class) lay within 1 to 100 nM; in test [2] (rated class), 5000 to 15000 nM.
For `CC(=O)c1c(C2CCC(O)(CO)CC2)nc2c(-c3ccc(-c4cnn(C)c4)nc3)cnn2c1N` (centres unmarked) [Compound 145, 1-(7-amino-5-(4-hydroxy-4-(hydroxymethyl)-cyclohexyl)-3-(6-(1-methyl-1H-pyrazol-4-yl)pyridin-3-yl)pyrazolo[1,5-a]pyrimidin-6-yl)ethanone], in that order: 1 to 100 nM and 1000 to 2000 nM.
Take `COCC1(CO)CCC(c2nc3c(-c4ccc(-c5ccccc5)nc4)cnn3c(N)c2C(C)=O)CC1` (centres unmarked) [Compound 170, 1-(7-amino-5-(4-(hydroxymethyl)-4-(methoxymethyl)-cyclohexyl)-3-(6-phenylpyridin-3-yl)pyrazolo[1,5-a]pyrimidin-6-yl)ethanone]: the results for the IC50 in test [1] (rated class) and in test [2] (rated class) were 1 to 100 nM and 1000 to 2000 nM, respectively.
For `N#CC1(O)CCC(c2nc3c(-c4ccc(-c5ccccc5)nc4)cnn3c(N)c2Br)CC1` (centres unmarked) [Compound 74, 4-(7-amino-6-bromo-3-(6-phenylpyridin-3-yl)pyrazolo[1,5-a]pyrimidin-5-yl)-1-hydroxycyclohexanecarbonitrile], the IC50 in test [1] (rated class) lay within 1 to 100 nM; in test [2] (rated class), 2000 to 5000 nM.
In the case of `COCCO[C@]1(C(=O)O)CC[C@@H](c2nc3c(-c4ccc(-c5ccccc5)nc4)cnn3c(N)c2C(C)=O)CC1` [Compound 57, (1R,4R)-4-(6-acetyl-7-amino-3-(6-phenylpyridin-3-yl)pyrazolo[1,5-a]pyrimidin-5-yl)-1-(2-methoxyethoxy) cyclohexanecarboxylic acid], the IC50 in test [1] (rated class) was 1 to 100 nM; in test [2] (rated class) it was 100 to 1000 nM.
The corresponding values for `CC(=O)c1c(C2CCC(O)(CO)CC2)nc2c(-c3ccc(-c4ccccc4)nc3)cnn2c1N` (centres unmarked) [Compound 138, 1-(7-amino-5-(4-hydroxy-4-(hydroxymethyl)cyclohexyl)-3-(6-phenylpyridin-3-yl)pyrazolo[1,5-a]pyrimidin-6-yl)ethanone] are 1 to 100 nM and 100 to 1000 nM.
For `COc1ccc(-c2ccc(-c3cnn4c(N)c(C(C)=O)c(C5CCC(CO)(OC)CC5)nc34)cn2)cn1` (centres unmarked) [Compound 171, 1-(7-amino-5-(4-(hydroxymethyl)-4-methoxycyclohexyl)-3-(6′-methoxy-2,3′-bipyridin-5-yl)pyrazolo[1,5-a]pyrimidin-6-yl)ethanone], in that order: 1 to 100 nM and 2000 to 5000 nM.
In the case of `Nc1c(Br)c([C@H]2CC[C@@](OCCN3CCOCC3)(C(=O)O)CC2)nc2c(-c3ccc(-c4ccccc4)nc3)cnn12` [Compound 65, (1R,4R)-4-(7-amino-6-bromo-3-(6-phenylpyridin-3-yl)pyrazolo[1,5-a]pyrimidin-5-yl)-1-(2-morpholinoethoxy) cyclohexanecarboxylic acid], the figures for the 50% inhibitory concentration (IC50) in test [1] (rated class) and in test [2] (rated class) were 1 to 100 nM and 1000 to 2000 nM, respectively.
The corresponding values for `COCCO[C@]1(C(=O)O)CC[C@@H](c2nc3c(-c4cnn(-c5ccccc5)c4)cnn3c(N)c2C(C)=O)CC1` [Compound 55, (1R,4R)-4-(6-acetyl-7-amino-3-(1-phenyl-1H-pyrazol-4-yl)pyrazolo[1,5-a]pyrimidin-5-yl)-1-(2-methoxyethoxy)cyclohexanecarboxylic acid] are 1 to 100 nM and 100 to 1000 nM.
For `CO[C@]1(C(=O)O)CC[C@H](c2nc3c(-c4cnc5ccc(F)cc5c4)cnn3c(N)c2C(C)=O)CC1` [Compound 38, (1S,4S)-4-(6-acetyl-7-amino-3-(6-fluoroquinolin-3-yl)pyrazolo[1,5-a]pyrimidin-5-yl)-1-methoxycyclohexane-carboxylic acid], in that order: 1 to 100 nM and 100 to 1000 nM.
For `COC[C@]1(C(=O)O)CC[C@@H](c2nc3c(-c4ccc(-c5ccccc5)nc4)cnn3c(N)c2C(C)=O)CC1` [Compound 19, (1S,4S)-4-(6-acetyl-7-amino-3-(6-phenylpyridin-3-yl)pyrazolo[1,5-a]pyrimidin-5-yl)-1-(methoxymethyl)-cyclohexane-carboxylic acid], in that order: 1 to 100 nM and 100 to 1000 nM.
Regarding `COCCOC[C@]1(CO)CC[C@@H](c2nc3c(-c4ccc(-c5ccccc5)nc4)cnn3c(N)c2Br)CC1` [Compound 169, ((1R,4R)-4-(7-amino-6-bromo-3-(6-phenylpyridin-3-yl)pyrazolo[1,5-a]pyrimidin-5-yl)-1-((2-methoxyethoxy)-methyl)cyclohexyl)-methanol], the IC50 in test [1] (rated class) lay within 1 to 100 nM; in test [2] (rated class), 2000 to 5000 nM.
The corresponding values for `COCCOC[C@]1(C(=O)O)CC[C@@H](c2nc3c(-c4cnn(-c5ccccc5)c4)cnn3c(N)c2Br)CC1` [Compound 14, (1S,4S)-4-(7-amino-6-bromo-3-(1-phenyl-1H-pyrazol-4-yl)pyrazolo[1,5-a]pyrimidin-5-yl)-1-((2-methoxyethoxy)methyl)cyclohexane-carboxylic acid] are 1 to 100 nM and 5000 to 15000 nM.
For `COC[C@]1(C(=O)O)CC[C@@H](c2nc3c(-c4cnn(-c5ccccc5)c4)cnn3c(N)c2C(C)=O)CC1` [Compound 21, (1S,4S)-4-(6-acetyl-7-amino-3-(1-phenyl-1H-pyrazol-4-yl)pyrazolo[1,5-a]pyrimidin-5-yl)-1-(methoxymethyl)-cyclohexane-carboxylic acid], in that order: 1 to 100 nM and 100 to 1000 nM.
The corresponding values for `CC(=O)c1c(N)n2ncc(-c3ccc(-c4ccccc4)nc3)c2nc1[C@H]1CC[C@@](F)(C(=O)O)CC1` [Compound 17, (1R,4R)-4-(6-acetyl-7-amino-3-(6-phenylpyridin-3-yl)pyrazolo[1,5-a]pyrimidin-5-yl)-1-fluorocyclohexane-carboxylic acid] are 1 to 100 nM and 100 to 1000 nM.
